Target: purified human Factor XIa (Homo sapiens (Human), UniProt P03951)
Assay: Factor XIa Assay
Format: biochemical
Conditions: substrate Z-Gly-Pro-Arg-AFC; value printed in the compound table of Example 12; read-out: FXIa Ki
Protocol: The effectiveness of a compound of the present invention as an inhibitor of Coagulation Factor XIa can be determined using a relevant purified serine protease, and an appropriate synthetic substrate. The rate of hydrolysis of the chromogenic or fluorogenic substrate by the relevant serine protease was measured both in the absence and presence of compounds of the present invention. Assays were conducted at room temperature or at 37° C. […] A decrease in the rate of fluorescence change in the presence of inhibitor is indicative of enzyme inhibition. Such methods are known to one skilled in the art. The results of this assay are expressed as the inhibitory constant, Ki.
Factor XIa determinations were made in 50 mM HEPES buffer at pH 7.4 containing 150 mM NaCl, 5 mM CaCl2, and 0.1% PEG 8000 (polyethylene glycol; JT Baker or Fisher Scientific).
Times required to achieve equilibration between enzyme and inhibitor were determined in control experiments. Initial velocities of product formation in the absence (Vo) or presence of inhibitor (Vi) were measured. […]

Chain of purified human Factor XIa (P03951 388-625): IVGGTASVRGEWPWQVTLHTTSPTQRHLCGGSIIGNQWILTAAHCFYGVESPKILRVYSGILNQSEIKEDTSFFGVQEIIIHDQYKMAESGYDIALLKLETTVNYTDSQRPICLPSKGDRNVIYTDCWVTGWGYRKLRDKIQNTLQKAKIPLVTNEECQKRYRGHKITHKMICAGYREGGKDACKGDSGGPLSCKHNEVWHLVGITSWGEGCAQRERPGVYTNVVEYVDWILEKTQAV
Chain of purified human Factor XIa (P03951 19-387 partner): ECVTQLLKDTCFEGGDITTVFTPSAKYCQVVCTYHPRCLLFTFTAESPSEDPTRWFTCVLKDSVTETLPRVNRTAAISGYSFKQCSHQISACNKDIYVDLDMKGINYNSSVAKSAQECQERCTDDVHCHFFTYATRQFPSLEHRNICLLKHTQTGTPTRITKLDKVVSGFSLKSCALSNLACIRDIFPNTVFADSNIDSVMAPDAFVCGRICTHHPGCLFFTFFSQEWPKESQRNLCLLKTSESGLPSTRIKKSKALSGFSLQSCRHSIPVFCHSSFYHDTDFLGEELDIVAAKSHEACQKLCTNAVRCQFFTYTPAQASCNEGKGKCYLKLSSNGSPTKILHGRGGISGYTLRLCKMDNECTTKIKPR

- Ki: 3.08 nM
Compound: O=C(O)c1ccc(-c2cnc(C3CCc4cc(-c5cc(Cl)ccc5-n5cnnn5)c[n+]([O-])c43)[nH]2)s1 (stereo not shown) [Example 12, 5-(2-{3-[5-chloro-2-(1H-tetrazol-1-yl)phenyl]-1-oxido-6,7-dihydro-5H-cyclopenta[b]pyridin-7-yl}-1H-imidazol-5-yl)thiophene-2-carboxylic acid]

From US10081617B2, “Factor XIa inhibitors” (MERCK SHARP & DOHME CORP., priority 2015, dated 2018)
